Data from patent publication US20250230193A1, “CYCLIC COMPOUND HAVING SELECTIVE KRAS INHIBITORY EFFECT ON HRAS AND NRAS” (CHUGAI SEIYAKU KABUSHIKI KAISHA, priority 2022, published 2025).

Tests used:
[1] = target: GDP-bound NRAS wild-type protein (Homo sapiens, UniProt P01111); assay: Binding to NRAS by surface plasmon resonance (SPR), Single Cycle Kinetics
[2] = target: GDP-bound HRAS wild-type protein (Homo sapiens, UniProt P01112); assay: Binding to HRAS by surface plasmon resonance (SPR), Single Cycle Kinetics
GDP-bound HRAS wild-type protein, sequence (P01112 whole entry): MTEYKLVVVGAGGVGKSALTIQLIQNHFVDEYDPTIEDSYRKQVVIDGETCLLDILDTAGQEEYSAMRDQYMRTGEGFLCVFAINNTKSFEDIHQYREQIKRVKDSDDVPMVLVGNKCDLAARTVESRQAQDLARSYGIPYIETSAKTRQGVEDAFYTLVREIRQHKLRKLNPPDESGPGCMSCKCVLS

GDP-bound NRAS wild-type protein, sequence (P01111 whole entry): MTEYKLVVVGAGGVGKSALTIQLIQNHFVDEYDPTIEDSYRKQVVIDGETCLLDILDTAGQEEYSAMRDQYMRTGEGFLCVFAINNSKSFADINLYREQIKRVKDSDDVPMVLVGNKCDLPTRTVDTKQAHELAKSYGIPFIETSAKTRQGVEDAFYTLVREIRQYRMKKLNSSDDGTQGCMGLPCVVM

## CCC(CC)[C@H]1C(=O)N(C)[C@H](C(=O)N(C)C)CC(=O)N(C)[C@@H](COC)C(=O)N[C@@H]([C@@H](C)CC)C(=O)N(C)CC(=O)N(C)[C@H]2C/C=C\CCN(C2=O)[C@@H](Cc2ccc(C(F)(F)F)cc2)C(=O)N(C)CC(=O)N[C@@H](CCc2ccc(Cl)c(Cl)c2)C(=O)N2C[C@H](OC3CCCC3)C[C@H]2C(=O)NC2(CC(C)(C)C2)C(=O)N1C [PP2648]
[1]; class symbols
  NRAS/KRAS (ratio of KD value with respect to GDP-bound NRAS wild-type protein to KD value with respect to KRAS): A (a compound having 10 or more and less than 20 is denoted as A)
[2]; class symbols
  HRAS/KRAS (ratio of KD value with respect to GDP-bound HRAS wild-type protein to KD value with respect to KRAS): A (a compound having 10 or more and less than 20 is denoted as A)

## CCC(CC)[C@H]1C(=O)N(C)[C@H](C(=O)N(C)C)CC(=O)N(C)[C@@H](COC)C(=O)N[C@@H]([C@@H](C)CC)C(=O)N(C2CC2)CC(=O)N(C)[C@H]2C/C=C\CCN(C2=O)[C@@H](CC2CCCCC2)C(=O)N(C)CC(=O)N[C@@H](CCc2cc(F)c(C(F)(F)F)c(F)c2)C(=O)N2C[C@H](OC(C)C)C[C@H]2C(=O)NC2(CC(C)(C)C2)C(=O)N1C [PP2515]
[1]; SPR, GDP-bound NRAS wild-type vs GDP-bound KRAS wild-type
  NRAS/KRAS (ratio of KD value with respect to NRAS to KD value with respect to KRAS): A (a compound having 10 or more and less than 20 is denoted as A)
[2]; SPR, GDP-bound HRAS wild-type vs GDP-bound KRAS wild-type
  HRAS/KRAS (ratio of KD value with respect to HRAS to KD value with respect to KRAS): A (a compound having 10 or more and less than 20 is denoted as A)

## CC[C@H](C)[C@@H]1NC(=O)[C@H](CC)N(C)C(=O)C[C@@H](C(=O)N(C)C)N(C)C(=O)[C@H](C2CCCC2)N(C)C(=O)C2(CCC2)NC(=O)[C@@H]2CCCCN2C(=O)[C@H](CCc2cc(F)c(C(F)(F)F)c(F)c2)NC(=O)CN(C)C(=O)[C@H](Cc2ccc(C(F)(F)F)cc2)N2CCCC[C@@H](C2=O)N(C)C(=O)CN(C)C1=O [PP0658]
[1]; SPR
  NRAS/KRAS (ratio of KD value with respect to GDP-bound NRAS wild-type protein to KD value with respect to KRAS): C (A compound having a KD ratio of 0.1 or more and less than 3 is denoted as C)
[2]; SPR
  HRAS/KRAS (ratio of KD value with respect to GDP-bound HRAS wild-type protein to KD value with respect to KRAS): B (a compound having 3 or more and less than 10 is denoted as B)

## CCO[C@@H]1C[C@H]2C(=O)NC3(CCC3)C(=O)N(C)[C@@H](C3CCCC3)C(=O)N(C)[C@H](C(=O)N(C)CC)CC(=O)N(C)[C@@H](CC(C)C)C(=O)N[C@@H]([C@@H](C)CC)C(=O)N(C)CC(=O)N(C)[C@H]3C/C=C\CCN(C3=O)[C@@H](Cc3ccc(C(F)(F)F)cc3)C(=O)N(C)CC(=O)N[C@@H](CCc3ccc(C(F)(F)F)c(Cl)c3)C(=O)N2C1 [PP2847]
[1]; class symbols
  NRAS/KRAS (ratio of KD value with respect to GDP-bound NRAS wild-type protein to KD value with respect to KRAS): A (a compound having 10 or more and less than 20 is denoted as A)
[2]; class symbols
  HRAS/KRAS (ratio of KD value with respect to GDP-bound HRAS wild-type protein to KD value with respect to KRAS): A (a compound having 10 or more and less than 20 is denoted as A)

## CC[C@H](C)[C@@H]1NC(=O)[C@H](CC(C)C)N(C)C(=O)C[C@@H](C(=O)N(C)C)N(C)C(=O)[C@H](C2CCCC2)N(C)C(=O)C2(CCC2)NC(=O)[C@@H]2CCCN2C(=O)[C@H](CCc2cc(F)c(C(F)(F)F)c(F)c2)NC(=O)CN(C)C(=O)[C@H](Cc2ccc(C(F)(F)F)cc2)N2CCCCC[C@@H](C2=O)N(C)C(=O)CN(C)C1=O [PP0512]
[1]; SPR
  NRAS/KRAS (ratio of KD value with respect to GDP-bound NRAS wild-type protein to KD value with respect to KRAS): B (a compound having 3 or more and less than 10 is denoted as B)
[2]; SPR
  HRAS/KRAS (ratio of KD value with respect to GDP-bound HRAS wild-type protein to KD value with respect to KRAS): B (a compound having 3 or more and less than 10 is denoted as B)

## CC[C@H](C)[C@@H]1NC(=O)[C@H](CC(C)C)N(C)C(=O)C[C@@H](C(=O)N(C)C)N(C)C(=O)[C@H](C2CCCC2)N(C)C(=O)C2(CCCC2)NC(=O)[C@@H]2CCCN2C(=O)[C@H](CCc2cc(F)c(C(F)(F)F)c(F)c2)NC(=O)CN(C)C(=O)[C@H](Cc2ccc(C(F)(F)F)cc2)N2CCCCC[C@@H](C2=O)N(C)C(=O)CN(C)C1=O [PP0507]
[1]; SPR
  NRAS/KRAS (ratio of KD value with respect to GDP-bound NRAS wild-type protein to KD value with respect to KRAS): B (a compound having 3 or more and less than 10 is denoted as B)
[2]; SPR
  HRAS/KRAS (ratio of KD value with respect to GDP-bound HRAS wild-type protein to KD value with respect to KRAS): B (a compound having 3 or more and less than 10 is denoted as B)

## CCO[C@@H]1C[C@H]2C(=O)NC3(CCC3)C(=O)N(C)[C@@H](C3CCCC3)C(=O)N(C)[C@H](C(=O)N(CC)CC)CC(=O)N(C)[C@@H](CC(C)C)C(=O)N[C@@H]([C@@H](C)CC)C(=O)N(C)CC(=O)N(C)[C@H]3C/C=C\CCN(C3=O)[C@@H](Cc3ccc(C(F)(F)F)cc3)C(=O)N(C)CC(=O)N[C@@H](CCc3cc(F)c(C(F)(F)F)c(F)c3)C(=O)N2C1 [PP1306]
[1]; SPR, KD ratio class
  NRAS/KRAS (ratio of KD value for GDP-bound NRAS wild-type protein to KD value for KRAS): AA (a compound having 20 or more is denoted as AA)
[2]; SPR, KD ratio class
  HRAS/KRAS (ratio of KD value for GDP-bound HRAS wild-type protein to KD value for KRAS): A (a compound having 10 or more and less than 20 is denoted as A)
